Reference: patent publication US20080063679A1, “NANOCOMPOSITES WITH RESIDUAL BIOCIDAL AND BIOSTATIC PROPERTIES” (Quartek Corporation, priority 2006, published 2008)
Values after ≈ are worked out from the molar mass of the structure shown.

Experiments:
fungi = assay: Fungicidal effectiveness, comparison table; assay type: cell-based; conditions: Table 1
Description: (§1) Current antimicrobials have a short life with no residual effect. They lose there effectiveness in high protein environment. Certain bacteria developed resistance. They are toxic or cause irritations. Some are highly corrosive.

G+ & G− = assay: Bactericidal effectiveness, comparison table; assay type: cell-based; conditions: Table 1
Description: as §1

spores = assay: Sporicidal effectiveness, comparison table; assay type: cell-based; conditions: Table 1
Description: as §1

[1] = Description: as §1
[2] = Minimum inhibitory concentration (MIC), comparison of biocidal nanocomposites and existing decontaminants; assay type: cell-based; conditions: Table 1
Description: as §1

OCl [Hypochlorite]
Effectiveness Fungicidal (fungi): good | Effectiveness Bactericidal (G+ & G−) (G+ & G−): very good | Effectiveness Sporicidal (spores): no/fair | Non-corrosive [1]: no | Contact time ([1]; Table 1): 1 to 30 min | Effective in hard water ([1]; Table 1): poor | Effective in organics ([1]; Table 1): poor | Effective in soap ([1]; Table 1): yes | Residual activity ([1]; Table 1): poor | Minimum inhibitory concentration (MIC) [2]: 150 µg/mL (≈ 2860 µM)
